The source of these data is ChEMBL document CHEMBL3259567, “Novel 2,4-Diarylaminopyrimidine Analogues (DAAPalogues) Showing Potent c-Met/ALK Multikinase Inhibitory Activities” (ACS Med Chem Lett, 2014).

As usually defined, the IC50 is the midpoint of a concentration-inhibition curve. Higher therefore signals a need for much substance. One may read the Ki as a dissociation constant, usually derived from enzyme kinetics or from competition with a known ligand. Read a low Ki as a stronger hold on the target. As usually defined, the half-life is the time needed for the level to fall by half in the phase considered. Low readings indicate rapid decline, high ones slow decline. A word on the clearance: it is a measure of how efficiently the substance is removed, as volume per time. Lower therefore signals a low capacity for elimination. One may read the AUC(0-inf) as the area under the concentration-time curve extrapolated to infinity. The term bioavailability denotes the share of a dose that reaches the circulation, judged against a reference dose that is usually intravenous. Higher therefore signals much systemic uptake.

The target in data set [1] is Hepatocyte growth factor receptor (Homo sapiens, UniProt P08581).
Chain of Hepatocyte growth factor receptor (P08581 whole entry): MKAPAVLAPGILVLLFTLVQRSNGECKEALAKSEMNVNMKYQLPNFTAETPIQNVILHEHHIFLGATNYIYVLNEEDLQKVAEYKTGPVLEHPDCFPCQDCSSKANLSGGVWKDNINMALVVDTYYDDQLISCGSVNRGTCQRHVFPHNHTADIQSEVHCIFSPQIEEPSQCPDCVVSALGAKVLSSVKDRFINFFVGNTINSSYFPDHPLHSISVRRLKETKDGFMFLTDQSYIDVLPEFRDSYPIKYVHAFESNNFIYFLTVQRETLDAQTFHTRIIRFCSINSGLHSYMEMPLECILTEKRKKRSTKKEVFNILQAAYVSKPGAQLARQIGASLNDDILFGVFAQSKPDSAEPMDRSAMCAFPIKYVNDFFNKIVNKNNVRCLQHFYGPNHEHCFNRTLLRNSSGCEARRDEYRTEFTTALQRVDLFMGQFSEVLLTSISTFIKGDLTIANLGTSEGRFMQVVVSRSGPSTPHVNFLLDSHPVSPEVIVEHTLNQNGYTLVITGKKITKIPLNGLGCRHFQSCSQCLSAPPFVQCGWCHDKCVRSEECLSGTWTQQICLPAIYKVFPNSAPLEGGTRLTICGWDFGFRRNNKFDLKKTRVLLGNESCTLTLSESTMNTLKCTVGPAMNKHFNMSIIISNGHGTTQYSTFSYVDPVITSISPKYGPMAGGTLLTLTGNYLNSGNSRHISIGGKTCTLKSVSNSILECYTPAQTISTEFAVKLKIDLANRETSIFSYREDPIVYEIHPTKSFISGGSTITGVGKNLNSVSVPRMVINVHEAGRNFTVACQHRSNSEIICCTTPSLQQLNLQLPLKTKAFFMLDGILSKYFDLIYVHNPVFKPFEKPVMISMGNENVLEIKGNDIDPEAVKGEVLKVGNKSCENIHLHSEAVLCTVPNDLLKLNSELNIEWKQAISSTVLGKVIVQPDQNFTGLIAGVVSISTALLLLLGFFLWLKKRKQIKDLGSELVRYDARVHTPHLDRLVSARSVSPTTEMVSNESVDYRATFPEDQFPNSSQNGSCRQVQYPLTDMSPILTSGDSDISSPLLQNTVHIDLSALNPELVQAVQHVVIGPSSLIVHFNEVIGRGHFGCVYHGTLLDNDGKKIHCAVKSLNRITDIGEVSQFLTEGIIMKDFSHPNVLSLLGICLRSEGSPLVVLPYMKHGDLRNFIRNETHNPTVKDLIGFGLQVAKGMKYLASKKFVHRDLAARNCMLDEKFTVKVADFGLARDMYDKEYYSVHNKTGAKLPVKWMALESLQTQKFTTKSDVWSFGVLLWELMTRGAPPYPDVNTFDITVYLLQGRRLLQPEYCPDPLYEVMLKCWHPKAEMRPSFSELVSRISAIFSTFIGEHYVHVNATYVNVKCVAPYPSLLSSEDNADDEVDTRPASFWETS
Data set [2] addresses ALK tyrosine kinase receptor (Homo sapiens, UniProt Q9UM73).
Data set [3] addresses D(1A) dopamine receptor (Homo sapiens, UniProt P21728). The experiment in a line: Antagonist activity at dopamine D1 receptor (unknown origin).
Data set [4] addresses D(1B) dopamine receptor (Homo sapiens, UniProt P21918). The experiment in a line: Antagonist activity at dopamine D5 receptor (unknown origin).
For data set [5], the target named is Proto-oncogene tyrosine-protein kinase receptor Ret (Homo sapiens) (UniProt P07949). The experiment in a line: Inhibition of purified recombinant RET (unknown origin) at 1 uM after 60 mins by ELISA. (In general: In an ELISA, binding on a coated surface is turned into a signal by an enzyme label.)
Chain of Proto-oncogene tyrosine-protein kinase receptor Ret (Homo sapiens) (P07949 whole entry): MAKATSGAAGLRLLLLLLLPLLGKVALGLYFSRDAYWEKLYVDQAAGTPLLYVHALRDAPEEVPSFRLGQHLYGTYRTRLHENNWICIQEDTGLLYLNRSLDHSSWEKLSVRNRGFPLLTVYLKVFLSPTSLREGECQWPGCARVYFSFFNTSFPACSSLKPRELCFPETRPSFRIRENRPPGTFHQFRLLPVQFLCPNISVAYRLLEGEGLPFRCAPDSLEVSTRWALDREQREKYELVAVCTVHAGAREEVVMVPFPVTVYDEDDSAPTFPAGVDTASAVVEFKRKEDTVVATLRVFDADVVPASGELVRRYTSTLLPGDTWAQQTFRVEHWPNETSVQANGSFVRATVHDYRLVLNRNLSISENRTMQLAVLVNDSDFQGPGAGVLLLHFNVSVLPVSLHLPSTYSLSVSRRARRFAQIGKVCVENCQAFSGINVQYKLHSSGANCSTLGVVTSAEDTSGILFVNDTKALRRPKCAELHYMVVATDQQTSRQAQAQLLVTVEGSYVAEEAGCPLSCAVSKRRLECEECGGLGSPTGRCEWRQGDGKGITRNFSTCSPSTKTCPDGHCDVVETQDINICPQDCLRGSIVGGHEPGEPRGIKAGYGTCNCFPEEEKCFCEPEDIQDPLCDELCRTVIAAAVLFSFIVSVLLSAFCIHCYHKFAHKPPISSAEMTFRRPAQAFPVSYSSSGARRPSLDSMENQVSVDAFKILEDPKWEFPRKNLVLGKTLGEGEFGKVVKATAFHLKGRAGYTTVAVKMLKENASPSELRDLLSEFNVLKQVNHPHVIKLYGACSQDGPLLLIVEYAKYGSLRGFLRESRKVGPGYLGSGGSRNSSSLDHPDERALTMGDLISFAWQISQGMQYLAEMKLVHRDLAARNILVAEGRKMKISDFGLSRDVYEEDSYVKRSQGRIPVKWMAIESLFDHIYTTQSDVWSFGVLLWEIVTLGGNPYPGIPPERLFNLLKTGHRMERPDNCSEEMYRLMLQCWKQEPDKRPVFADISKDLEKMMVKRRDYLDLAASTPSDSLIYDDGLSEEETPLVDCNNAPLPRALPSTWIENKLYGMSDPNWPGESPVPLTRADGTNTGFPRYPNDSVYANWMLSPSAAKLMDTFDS
Data set [6] concerns the target Macrophage-stimulating protein receptor (Homo sapiens) (UniProt Q04912). In words: Inhibition of purified recombinant RON (unknown origin) at 1 uM after 60 mins by ELISA.
In data set [7] the target is Proto-oncogene tyrosine-protein kinase Src (Homo sapiens) (UniProt P12931). In words: Inhibition of purified recombinant c-SRC (unknown origin) at 1 uM after 60 mins by ELISA.
In data set [8] the target is Fibroblast growth factor receptor 1 (Homo sapiens) (UniProt P11362). In words: Inhibition of purified recombinant FGFR1 (unknown origin) at 1 uM after 60 mins by ELISA.
Chain of Fibroblast growth factor receptor 1 (Homo sapiens) (P11362 22-822 limits assumed): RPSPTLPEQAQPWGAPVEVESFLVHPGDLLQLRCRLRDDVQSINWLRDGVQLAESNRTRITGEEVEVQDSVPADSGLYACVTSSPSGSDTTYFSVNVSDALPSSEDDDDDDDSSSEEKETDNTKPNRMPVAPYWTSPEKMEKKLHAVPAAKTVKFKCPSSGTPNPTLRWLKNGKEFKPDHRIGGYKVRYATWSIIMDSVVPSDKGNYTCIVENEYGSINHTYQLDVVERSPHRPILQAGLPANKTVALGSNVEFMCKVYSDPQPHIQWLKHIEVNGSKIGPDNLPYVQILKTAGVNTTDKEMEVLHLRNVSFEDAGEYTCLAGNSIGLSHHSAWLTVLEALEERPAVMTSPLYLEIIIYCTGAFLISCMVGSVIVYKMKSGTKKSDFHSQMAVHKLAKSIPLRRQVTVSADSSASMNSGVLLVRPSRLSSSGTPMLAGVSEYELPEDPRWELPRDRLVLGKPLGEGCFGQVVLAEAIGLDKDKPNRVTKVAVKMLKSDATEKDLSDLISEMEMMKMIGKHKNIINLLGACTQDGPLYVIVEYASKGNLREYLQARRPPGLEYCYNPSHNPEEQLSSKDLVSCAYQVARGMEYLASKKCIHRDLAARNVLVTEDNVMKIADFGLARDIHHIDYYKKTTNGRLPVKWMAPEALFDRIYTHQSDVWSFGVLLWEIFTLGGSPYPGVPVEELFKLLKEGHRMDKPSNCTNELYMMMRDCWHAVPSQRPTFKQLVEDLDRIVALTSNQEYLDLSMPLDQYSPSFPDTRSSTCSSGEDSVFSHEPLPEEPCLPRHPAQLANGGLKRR
A short description of data set [9]: Half life in mouse at 10 mg/kg, iv. It counts as ADME, organism-based. Conditions: in vivo. Also noted: dose 10 mg/kg, route intravenous.
The nature of data set [10]: Clearance in mouse at 10 mg/kg, iv. Type of data set: ADME, organism-based. Also noted: dose 10 mg/kg, route intravenous. Conditions: in vivo.
Data set [11] is described as follows: AUC (0 to infinity) in mouse at 20 mg/kg, po. It counts as ADME, organism-based. Also noted: time infinity, dose 20 mg/kg, route oral. Conditions: plasma.
Data set [12] in a line: Oral bioavailability in mouse at 20 mg/kg. It counts as ADME, organism-based. To be noted: in vivo.
In data set [13] the test system is BaF3. The experiment in a line: Antitumor activity against mouse BAF3 cells expressing EML4-ALK fusion protein allografted in nude mouse assessed as tumor growth inhibition at 0.3 to 1 mg/kg, po qd for 2 weeks relative to vehicle-treated control. It counts as functional, organism-based.
A short description of data set [14]: cells. Conditions: Homo sapiens, KARPAS-299, 72 h.
Description: Antiproliferative activity against ALK-dependent human KARPAS299 cells after 72 hrs
The test system of data set [15] is BaF3. In words: Antitumor activity against mouse BAF3 cells expressing EML4-ALK fusion protein allografted in nude mouse assessed as tumor growth inhibition at 1 mg/kg, po qd for 2 weeks relative to vehicle-treated control. It counts as functional. To be noted: BaF3, 336 h, read-out: TGI.
The nature of data set [16]: cells. To be noted: Homo sapiens, EBC-1, 72 h.
Description: Antiproliferative activity against cMET-amplified human EBC1 cells after 72 hrs

Calls of active or inactive are those of the source.

Chain of ALK tyrosine kinase receptor (Q9UM73 whole entry): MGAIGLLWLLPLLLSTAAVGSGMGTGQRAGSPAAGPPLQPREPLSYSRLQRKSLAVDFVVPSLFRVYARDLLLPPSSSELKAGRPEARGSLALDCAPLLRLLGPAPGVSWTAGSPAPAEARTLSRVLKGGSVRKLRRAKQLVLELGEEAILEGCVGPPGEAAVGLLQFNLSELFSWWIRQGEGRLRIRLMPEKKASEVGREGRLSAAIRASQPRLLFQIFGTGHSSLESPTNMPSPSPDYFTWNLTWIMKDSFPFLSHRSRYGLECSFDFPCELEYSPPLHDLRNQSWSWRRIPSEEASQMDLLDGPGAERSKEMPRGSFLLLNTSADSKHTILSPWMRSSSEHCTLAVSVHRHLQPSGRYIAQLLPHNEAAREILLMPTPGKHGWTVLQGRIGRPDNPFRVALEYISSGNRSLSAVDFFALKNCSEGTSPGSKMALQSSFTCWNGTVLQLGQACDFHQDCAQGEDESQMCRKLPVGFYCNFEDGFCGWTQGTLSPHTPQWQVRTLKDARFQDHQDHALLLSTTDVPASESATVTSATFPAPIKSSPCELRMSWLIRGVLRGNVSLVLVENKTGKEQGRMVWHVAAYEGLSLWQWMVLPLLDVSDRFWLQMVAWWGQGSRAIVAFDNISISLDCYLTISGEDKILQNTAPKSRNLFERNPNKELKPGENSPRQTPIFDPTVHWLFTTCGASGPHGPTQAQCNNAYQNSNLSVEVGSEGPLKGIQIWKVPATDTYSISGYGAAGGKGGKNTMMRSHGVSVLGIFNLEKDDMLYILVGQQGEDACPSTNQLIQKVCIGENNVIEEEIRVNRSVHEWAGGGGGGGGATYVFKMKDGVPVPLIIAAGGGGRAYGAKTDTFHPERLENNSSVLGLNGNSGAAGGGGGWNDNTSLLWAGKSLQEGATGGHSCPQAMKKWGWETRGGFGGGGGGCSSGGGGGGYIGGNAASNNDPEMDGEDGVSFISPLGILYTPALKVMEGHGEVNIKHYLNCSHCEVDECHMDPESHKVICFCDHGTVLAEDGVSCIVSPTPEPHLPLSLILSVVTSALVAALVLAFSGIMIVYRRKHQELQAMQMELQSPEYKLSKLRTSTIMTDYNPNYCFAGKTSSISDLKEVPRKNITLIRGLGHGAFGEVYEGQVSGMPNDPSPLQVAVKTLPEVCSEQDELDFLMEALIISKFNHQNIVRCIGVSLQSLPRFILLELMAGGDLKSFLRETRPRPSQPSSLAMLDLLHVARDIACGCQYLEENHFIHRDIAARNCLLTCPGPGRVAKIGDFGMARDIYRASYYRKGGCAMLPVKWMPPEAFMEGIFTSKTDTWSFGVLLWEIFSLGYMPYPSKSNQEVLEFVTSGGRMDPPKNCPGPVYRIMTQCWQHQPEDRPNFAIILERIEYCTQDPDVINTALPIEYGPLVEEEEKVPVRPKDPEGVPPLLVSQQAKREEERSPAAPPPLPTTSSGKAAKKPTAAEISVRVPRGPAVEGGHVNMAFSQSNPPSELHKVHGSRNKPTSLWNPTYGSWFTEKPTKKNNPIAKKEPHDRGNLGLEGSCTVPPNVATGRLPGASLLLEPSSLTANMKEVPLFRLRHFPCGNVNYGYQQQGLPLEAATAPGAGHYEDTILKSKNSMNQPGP

Turning to `CNC(=O)c1ccccc1Nc1nc(Nc2ccc3c(c2)C(C)CNCC3)ncc1Cl` (centres undefined), the results for the IC50 in data set [1] and in data set [2] were 0.0064 µM and 0.0079 µM, respectively.

For the compound `CC1CN(C)CCc2ccc(Nc3ncc(Cl)c(Nc4ccccc4C(=O)N4CCOCC4)n3)cc21` (centres undefined), the IC50 in data set [1] and in data set [2] was more than 1 µM each time.

Turning to `CNC(=O)c1ccccc1Nc1nc(Nc2ccc3c(c2)C(C)CN(C)CC3)nc(F)c1Cl` (centres undefined), the IC50 in [1] and in [2] was more than 1 µM throughout.

For `CNC(=O)c1ccccc1Nc1nc(Nc2ccc3c(c2)C(C)CN(C)CC3)nc(NC)c1Cl` (centres undefined), the IC50 in data set [1] and in data set [2] was more than 1 µM each time.

In the case of `CNC(=O)c1ccccc1Nc1nc(Nc2ccc3c(c2)C(C)CN(C)CC3)nc2sccc12` (centres undefined), the IC50 in data set [1] and in [2] was more than 1 µM throughout.

On to `CN1CCc2ccccc2Cc2[nH]c3ccccc3c2CC1`, for which the Ki in data set [3] and in data set [4] was less than 0.01 µM each time.

Consider `CNC(=O)c1ccccc1Nc1nc(Nc2ccc3c(c2)C(C)CN(C)CC3)nc(N2CCOCC2)c1Cl` (centres undefined), for which the IC50 in data set [1] and in data set [2] was more than 1 µM throughout.

With `CNC(=O)c1ccccc1Nc1nc(Nc2ccc3c(c2)C(c2ccccc2)CN(C)CC3)ncc1Cl` (racemic), the inhibition entry in data set [5], in data set [6], in [7] and in data set [8] was “Active” each time. This compound also showed a half-life in [9] of 2.2 h. For the same compound, the clearance in data set [10] is 33.3 mL/min/kg. Further, in data set [11], the AUC(0-inf) worked out at 9070 ng·h/mL. Besides, the bioavailability in [12] was determined as 73%. In [13], the TGI result was “inactive”. For the same compound, half-maximal inhibition in [14] (IC50) was put at 0.03 µM.

As for `CNC(=O)c1ccccc1Nc1nc(Nc2ccc3c(c2)C(C)CN(C)CC3)nc2ccccc12` (centres undefined), the IC50 in data set [1] and in data set [2] was more than 1 µM throughout.

In the case of `CNC(=O)c1ccccc1Nc1nc(Nc2ccc3c(c2)C(C)CN(C)CC3)nc2cccnc12` (centres undefined), the IC50 in data set [1] and in [2] was more than 1 µM throughout.

With `CNC(=O)c1ccccc1Nc1nc(Nc2ccc3c(c2)C(C)CN(C)CC3)ncc1Cl` (racemic), the inhibition entry in data set [5], in data set [6], in data set [7] and in data set [8] was “Active” throughout. This compound showed a half-life in [9] of 2.2 h. The same compound showed a clearance in data set [10] of 33.3 mL/min/kg. This compound also displayed an AUC(0-inf) in data set [11] of 5500 ng·h/mL. The compound further had a bioavailability in data set [12] of 20%. Further, the inhibition in vivo at 1 mg/kg in [15] was found to be 60.6%. In addition, the IC50 is 0.007 µM in [16] and 0.014 µM in data set [14].
